We go through four compounds from US5952368A, “5-aroylpyrrol-2-ylmethylarene derivatives” (Syntex (U.S.A.) Inc., priority 1997, dated 1999).

pIC50: −log10 of the molar value.

One experiment deals with air pouch PGE2 formation. Description: Inhibition of eicosanoid (PGE2) synthesis in vivo: carrageenan air-pouch model in rats. Also noted: species or system rat. The note with it: oral, male rats. As for the experimental part:
In this assay, an air-pouch is created in the rat and the PGE2 levels in the air-pouch exudate are measured by enzyme immunoassay. Briefly, male rats were anesthetized using a 60:40 CO2 :O2 mixture and subsequently injected subcutaneously with 20 ml of sterilized air, under aseptic conditions, in the proximal area of the dorsum. This injection of sterile air causes the creation of a subcutaneous "air pouch". The next day, a further 10 ml of sterile air was injected into the previously formed pouch using the same technique. […] Control rats received vehicle alone. After 30 minutes, 5 ml of a 0.5% solution of carrageenan (Sigma, Lambda Type IV) was injected into the air pouch. The rats were euthanized 3 or 6 h after the compound administration. […] The total exudate volume was recorded, and the samples were analyzed for PGE2 and 6-keto PGF1 by ELISA (Titerzyme®, PerSeptive Diagnostics) and TxB2 by radioimmuno assay (New England Nuclear Research, Catalog No. NEK-037), according to the manufacturer's directions.
The mean concentrations of PGE2 were calculated for each group. The anti-inflammatory activity of test materials is expressed as the percent inhibition of PGE2 formation in the test group relative to the control group.

Another experiment addresses T1, COX I (Homo sapiens, UniProt P23219).
T1 construct: made in house; baculovirus-infected insect cells by own knowledge of the cited Barnett et al. 1994
Put plainly: Inhibition of COX I in vitro (radiometric assay, 14C arachidonic acid, partially purified enzyme). The note with it: partially purified COX I, 20 micromolar arachidonic acid, 10 min preincubation, room temperature; read-out: COX I IC50. In kind it is biochemical.

The subject of experiment [1] is carrageenan-induced paw edema. Description: Anti-inflammatory activity: inhibition of carrageenan-induced paw edema in the rat. In kind it is in vivo. The note with it: 10 mg/Kg, oral, female rats, 3 h after carrageenan. The protocol:
The anti-inflammatory activity of compounds of this invention was determined by measuring the inhibition of carrageenan-induced paw edema in the rat, using a modification of the method described in Winter C. A. et al. (1962) "Carrageenan-Induced Edema in Hind Paw of the Rat as an Assay for Anti-inflammatory Drugs". Proc. Soc. Exp. Biol. Med. 111: 544-547. This assay has been used as a primary in vivo screen for anti-inflammatoryactivity of most NSAIDs, and is considered predictive of human efficacy. Briefly, test materials were administered orally to female rats in a volume of 1 ml prepared as solutions or suspensions in an aqueous vehicle containing 0.9% NaCl, 0.5% sodium carboxymethyl-cellulose, 0.4% polysorbate 80, 0.9% benzyl alcohol and 97.3% distilled water. Control rats received vehicle alone. After 1 h 0.05 ml of a 0.5% solution of Carrageenan (Type IV Lambda, Sigma Chemical Co.) in 0.9% saline was injected into the subplantar region of the right hind paw. Three hours later the rats were euthanized in a carbon dioxide atmosphere; hind paws were removed by severing at the tatso-crural joint; and the left and right paws were weighed. The increase in weight of the right paw over the left paw was obtained for each animal and the mean increases were calculated for each group. The anti-inflammatory activity of the test materials is expressed as the percent inhibition of the increase in hind paw weight of the test group relative to the vehicle-dosed control group.
In general terms: The carrageenan paw model is a standard test of acute inflammation.

Experiment [2] deals with acetic acid-induced writhing. Put plainly: Analgesic activity: Acetic Acid-induced Rat Writhing Assay. It counts as in vivo. To be noted: 10 mg/Kg, oral, male Sprague Dawley rats. The text has this: The analgesic activity of compounds of this invention may be determined by the Acetic Acid-induced Rat Writhing Assay, using a modification of the method described in Berkenkopf, J. W. and Weichman, B. M. "Production of Prostacyclin in Mice following Intraperitoneal Injection of Acetic Acid, Phenylbenzoquinone and Zymosan: Its Role in the Writhing Response" Prostaglandins: 36: 693-70 (1988). This assay is one of several acute assays which have been used to assess the analgesic activity of NSAIDs, and is considered predictive of human efficacy. The test materials were administered orally to male Sprague Dawley rats in a volume of 1 ml/100 g body weight as solutions or suspensions in an aqueous vehicle containing 0.9% NaCl 0.5% sodium carboxymethyl-cellulose, 0.4% polysorbate 80, 0.9% benzyl alcohol and 97.3% water. Control rats received vehicle alone. One hour after compound administration, 0.3 ml/100 g body weight of 0.75% solution of acetic acid was injected intraperitoneally. The acetic acid injection induces a series of characteristic writhing responses, which were counted over the period between 15 and 30 minutes after the injection. The analgesic activity of test materials is expressed as the percentage inhibition of writhing in the test group relative to the control group.
Background: An intraperitoneal irritant provokes the stretching counted in writhing tests.

Another experiment has as its target T2, COX II (Homo sapiens, UniProt P35354).
T2 construct: made in house; baculovirus-infected insect cells by own knowledge of the cited Barnett et al. 1994
T2 sequence (P35354 18-604): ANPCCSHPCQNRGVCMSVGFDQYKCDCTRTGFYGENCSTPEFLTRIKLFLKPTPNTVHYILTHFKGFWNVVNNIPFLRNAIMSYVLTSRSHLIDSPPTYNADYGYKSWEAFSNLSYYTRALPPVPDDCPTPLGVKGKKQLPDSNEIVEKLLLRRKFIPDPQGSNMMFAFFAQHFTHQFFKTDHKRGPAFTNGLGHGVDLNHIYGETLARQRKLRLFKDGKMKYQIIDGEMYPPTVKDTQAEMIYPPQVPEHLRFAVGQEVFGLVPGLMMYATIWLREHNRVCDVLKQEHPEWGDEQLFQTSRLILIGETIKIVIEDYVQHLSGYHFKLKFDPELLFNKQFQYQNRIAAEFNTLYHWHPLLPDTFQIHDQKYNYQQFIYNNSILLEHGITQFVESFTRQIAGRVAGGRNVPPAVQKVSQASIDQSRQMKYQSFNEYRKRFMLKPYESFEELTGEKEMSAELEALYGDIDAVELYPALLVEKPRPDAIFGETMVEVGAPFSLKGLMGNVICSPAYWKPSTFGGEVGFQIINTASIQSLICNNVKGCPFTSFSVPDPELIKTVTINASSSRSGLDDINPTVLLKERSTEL
Put plainly: Inhibition of COX II in vitro (radiometric assay, 14C arachidonic acid, partially purified enzyme). It counts as biochemical. To be noted: partially purified COX II, 20 micromolar arachidonic acid, 10 min preincubation, room temperature; read-out: COX II IC50.

Experiment [3] deals with cognitive decline of Alzheimer's patients. To be noted: cited from earlier work.

Usually pIC50 stands for −log10 of the IC50, conventionally taken in molar units.

T1 sequence (P23219 24-599): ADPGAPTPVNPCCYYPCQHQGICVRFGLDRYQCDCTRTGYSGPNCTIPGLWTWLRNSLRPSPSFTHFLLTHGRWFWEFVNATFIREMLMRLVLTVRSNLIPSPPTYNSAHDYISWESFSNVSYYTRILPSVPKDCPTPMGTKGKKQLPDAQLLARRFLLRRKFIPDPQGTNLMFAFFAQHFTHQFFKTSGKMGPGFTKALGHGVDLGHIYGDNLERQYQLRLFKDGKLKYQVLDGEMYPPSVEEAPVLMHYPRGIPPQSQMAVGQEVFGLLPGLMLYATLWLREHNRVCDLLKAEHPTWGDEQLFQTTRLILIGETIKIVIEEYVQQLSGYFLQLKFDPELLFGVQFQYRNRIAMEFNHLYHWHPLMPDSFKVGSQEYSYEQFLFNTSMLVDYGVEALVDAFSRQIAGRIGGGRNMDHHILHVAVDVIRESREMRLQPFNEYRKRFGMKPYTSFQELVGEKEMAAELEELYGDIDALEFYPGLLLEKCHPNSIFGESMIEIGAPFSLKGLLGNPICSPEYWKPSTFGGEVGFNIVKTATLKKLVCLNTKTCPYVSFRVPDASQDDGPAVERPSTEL

Turning to `Cc1ccc(C(=O)c2ccc(Cc3ccc(NS(=O)(=O)CCO)cc3F)n2C)cc1` [compound 36, N-{3-Fluoro-4-[5-(4-methylbenzoyl)-1-methyl-1H-pyrrol-2-ylmethyl]phenyl}-2-(hydroxy)ethanesulfonamide], in the experiment with air pouch PGE2 formation (10 mg/Kg, 3 hr), the “% Inhibition of air pouch PGE2 formation” value amounted to 96%. Also, the values for the pIC50 on COX I and on COX II were 5.00 and 7.30, respectively. Further, the “% Inhibition (of the increase in hind paw weight)” value in experiment [1] is listed as 31%. Further, in experiment [2], the “% Inhibition of writhing responses” value is listed as 16%.

As to `COc1ccc2c(c1)c(CC(=O)O)c(C)n2C(=O)c1ccc(Cl)cc1` [Indomethacin, indomethacin, reference compound], the “% Inhibition of air pouch PGE2 formation” value with air pouch PGE2 formation (2-5 mg/Kg, time not given) is recorded as more than 70%. The “effect on cognitive decline of Alzheimer's patients (in words)” value in experiment [3] is “inhibit the cognitive decline of Alzheimer's patients”.

For the compound `Cc1cc(Cc2ccc(NS(C)(=O)=O)cn2)n(C)c1C(=O)c1ccc(Cl)cc1` [compound 263, N-{2-[5-(4-Chlorobenzoyl)-1,4-dimethyl-1H-pyrrol-2-ylmethyl]pyridin-5-yl}-methanesulfonamide], the “% Inhibition of air pouch PGE2 formation” value in the experiment on air pouch PGE2 formation (30 mg/Kg, 6 hr) was determined as 80%. Besides, the pIC50 at COX I is 4.31; at COX II, 6.35. Moreover, the “% Inhibition (of the increase in hind paw weight)” value in experiment [1] worked out at 40%. In experiment [2], the “% Inhibition of writhing responses” value is given as 31%.

Consider `Cc1cc(Cc2ccc(NS(=O)(=O)N(C)C)cc2)n(C)c1C(=O)c1ccc(Cl)cc1` [compound 140, 1-{4-[5-(4-Chlorobenzoyl)-1,4-dimethyl-1H-pyrrol-2-ylmethyl]phenyl}-3,3-di-methylsulfamide], for which the “% Inhibition of air pouch PGE2 formation” value in the experiment on air pouch PGE2 formation (30 mg/Kg, 6 hr) is recorded as 83%. For the same compound, the values for the pIC50 at COX I and on COX II were 5.27 and 6.92, respectively. The “% Inhibition (of the increase in hind paw weight)” value in experiment [1] came out at 27%. Moreover, the “% Inhibition of writhing responses” value in experiment [2] was determined as 4%.
